# Read-outs that look alike come from different tables or passages of the source.
# Columns and labels:
# [1] = test system: Respiratory Syncytial Virus (RSV) long strain; test: microbe, parasite or virus in culture; assay type: cell-based; conditions: human respiratory syncytial virus, Tables A and B list compounds by EC50 band
# Summary of the method: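 CPE-reduction format: viability measured colorimetrically with CCK-8 (450 nm, 630 nm reference) after 3-4 h, following 5-day infection at 37 °C, 5% CO2. Cells were HEp-2; inoculum 100 TCID50/well; duplicate 9-point 1/3 series starting at 100 μM or 1 μM.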
# [2] = Cytotoxicity Determination (CCK-8, without addition of virus); assay type: cell-based; conditions: human, 50% cytotoxicity concentration (CC50)
# Summary of the method: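 Cytotoxicity was measured by CCK-8 after 3-4 hours at 37 °C, following 5 days of uninfected exposure at 37 °C and 5% CO2. Compounds ran as duplicate 7-point 1/2 dilutions starting at 100 μM, with 1% final DMSO. HEp-2 cells had been plated at 1,500/well the day before.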
# recombinant RSV complex = recombinant RSV complex (Human respiratory syncytial virus A, UniProt P28887); test: RSV Polymerase Inhibition Assay; assay type: biochemical
# Sequence of recombinant RSV complex (P28887 whole entry): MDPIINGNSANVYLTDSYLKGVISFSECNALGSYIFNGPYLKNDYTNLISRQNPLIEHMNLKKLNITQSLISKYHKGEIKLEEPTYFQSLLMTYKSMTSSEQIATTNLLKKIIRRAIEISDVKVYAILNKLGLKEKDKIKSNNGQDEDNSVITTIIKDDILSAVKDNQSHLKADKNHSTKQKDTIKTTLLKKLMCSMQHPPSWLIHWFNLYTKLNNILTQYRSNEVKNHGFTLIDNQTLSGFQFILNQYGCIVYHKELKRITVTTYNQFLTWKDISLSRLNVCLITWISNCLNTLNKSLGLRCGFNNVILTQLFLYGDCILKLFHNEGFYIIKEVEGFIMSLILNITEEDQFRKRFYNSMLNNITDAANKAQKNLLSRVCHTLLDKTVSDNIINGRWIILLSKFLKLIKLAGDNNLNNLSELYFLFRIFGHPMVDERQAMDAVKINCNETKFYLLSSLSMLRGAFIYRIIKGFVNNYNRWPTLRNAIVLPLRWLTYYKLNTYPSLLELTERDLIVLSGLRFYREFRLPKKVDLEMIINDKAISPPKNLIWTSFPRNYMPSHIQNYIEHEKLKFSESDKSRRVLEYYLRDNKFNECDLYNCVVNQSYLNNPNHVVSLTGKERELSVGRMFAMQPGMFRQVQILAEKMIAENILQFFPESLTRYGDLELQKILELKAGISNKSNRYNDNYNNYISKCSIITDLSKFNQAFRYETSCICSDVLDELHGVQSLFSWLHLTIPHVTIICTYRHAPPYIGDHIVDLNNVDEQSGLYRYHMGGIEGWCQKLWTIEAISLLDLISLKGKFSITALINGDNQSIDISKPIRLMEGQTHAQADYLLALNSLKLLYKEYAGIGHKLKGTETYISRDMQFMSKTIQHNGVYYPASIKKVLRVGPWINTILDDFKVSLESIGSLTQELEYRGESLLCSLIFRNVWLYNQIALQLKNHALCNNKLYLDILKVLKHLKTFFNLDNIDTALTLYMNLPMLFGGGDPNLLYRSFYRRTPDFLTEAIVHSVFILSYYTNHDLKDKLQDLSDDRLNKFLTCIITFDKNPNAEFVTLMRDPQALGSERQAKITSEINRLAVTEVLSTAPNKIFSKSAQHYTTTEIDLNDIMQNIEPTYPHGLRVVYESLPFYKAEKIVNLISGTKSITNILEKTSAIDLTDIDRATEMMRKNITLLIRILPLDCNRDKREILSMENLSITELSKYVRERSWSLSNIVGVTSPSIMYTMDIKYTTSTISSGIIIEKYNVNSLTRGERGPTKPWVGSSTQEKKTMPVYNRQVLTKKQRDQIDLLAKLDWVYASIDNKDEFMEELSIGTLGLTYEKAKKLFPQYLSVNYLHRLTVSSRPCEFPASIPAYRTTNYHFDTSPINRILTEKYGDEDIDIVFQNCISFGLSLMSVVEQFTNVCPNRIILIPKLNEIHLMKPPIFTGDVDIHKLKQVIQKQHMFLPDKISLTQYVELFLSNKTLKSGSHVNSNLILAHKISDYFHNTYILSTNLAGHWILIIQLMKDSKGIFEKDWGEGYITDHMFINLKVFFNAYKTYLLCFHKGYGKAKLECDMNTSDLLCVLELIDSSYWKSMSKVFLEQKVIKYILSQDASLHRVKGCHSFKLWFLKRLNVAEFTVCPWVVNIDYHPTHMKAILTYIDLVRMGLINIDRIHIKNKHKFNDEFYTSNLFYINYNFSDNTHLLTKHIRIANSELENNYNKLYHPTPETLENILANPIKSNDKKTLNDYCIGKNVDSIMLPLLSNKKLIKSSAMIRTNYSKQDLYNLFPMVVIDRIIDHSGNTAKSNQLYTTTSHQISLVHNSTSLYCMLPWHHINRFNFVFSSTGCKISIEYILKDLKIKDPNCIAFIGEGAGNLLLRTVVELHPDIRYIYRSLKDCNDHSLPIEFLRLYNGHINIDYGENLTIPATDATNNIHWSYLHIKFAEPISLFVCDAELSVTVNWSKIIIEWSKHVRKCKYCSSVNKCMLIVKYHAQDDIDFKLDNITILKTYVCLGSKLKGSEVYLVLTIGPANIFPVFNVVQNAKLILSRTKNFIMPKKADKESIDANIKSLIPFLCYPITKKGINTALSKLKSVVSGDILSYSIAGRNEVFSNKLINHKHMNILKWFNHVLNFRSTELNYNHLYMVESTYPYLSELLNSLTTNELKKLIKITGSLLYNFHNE
# Sequence of recombinant RSV complex (P03421 whole entry, further chain): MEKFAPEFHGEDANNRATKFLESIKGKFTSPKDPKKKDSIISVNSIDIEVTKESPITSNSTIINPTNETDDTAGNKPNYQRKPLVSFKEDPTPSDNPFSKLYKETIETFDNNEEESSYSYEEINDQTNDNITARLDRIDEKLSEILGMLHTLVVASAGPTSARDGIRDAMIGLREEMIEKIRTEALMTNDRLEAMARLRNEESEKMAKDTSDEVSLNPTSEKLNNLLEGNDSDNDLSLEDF
# Summary of the method: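 Inhibition measured as reduced incorporation of radiolabel into RNA products, detected by scintillation counting. Reactions: recombinant RSV complex (10 nM), RNA oligonucleotides, Tris-HCl pH 7.5, 6 mM MgCl2, inhibitor titration, 2 h at 30 °C, EDTA stop.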
# RSV replicon = test: microbe, parasite or virus in culture; assay type: cell-based; conditions: human respiratory syncytial virus, read-out: EC50, the concentration of the drug required for reducing RSV replicon RNA by 50%
# [3] = HEp-2, 120 h, read-out: 50% effective concentration (EC50), HEp-2 cells infected with RSV long strain, 5 days, CCK-8 readout
# [4] = 120 h, read-out: 50% effective concentration (EC50), HEp-2 cells infected with RSV long strain, 5 days, CCK-8 readout
smiles,measurement,setting,value
CCC(O)(CNC(=O)c1ccc(OCCF)c(OC)c1)c1ccc(OC)c(-c2ccc(F)c(Cl)c2)n1 (racemic) [Compound 122],EC50,[1]; [3],< 1000 nM
same,CC50 at 5 days,[2],10000 to 100000 nM
same,IC50,recombinant RSV complex,< 1000 nM
same,EC50,RSV replicon,< 1000 nM
COc1cc(C(=O)NCC(O)(c2cc3c(c(-c4ccc(F)cc4)n2)OCC3(C)N)C(F)(F)F)ccc1OCCO (stereo not shown) [Compound 539],EC50,[1]; [3],< 1000 nM
same,CC50 at 5 days,[2],10000 to 100000 nM
same,IC50,recombinant RSV complex,< 1000 nM
same,EC50,RSV replicon,< 1000 nM
COc1cc(C(=O)NC[C@](O)(c2cc3c(c(-c4ccc(F)cc4)n2)OCC3(C)CN)C(F)(F)F)ccc1OCCO (stereo partly shown) [Compound 633b],EC50,[1]; [3],< 1000 nM
same,CC50 at 5 days,[2],10000 to 100000 nM
same,IC50,recombinant RSV complex,< 1000 nM
same,EC50,RSV replicon,< 1000 nM
COc1cc(C(=O)NCC(C)(O)c2ccc(OC)c(-c3c[nH]c4c(F)cccc34)n2)ccc1OCCO (racemic) [Compound 117],EC50,[1]; [3],< 1000 nM
same,CC50 at 5 days,[2],10000 to 100000 nM
same,IC50,recombinant RSV complex,< 1000 nM
same,EC50,RSV replicon,< 1000 nM
COc1cc(C(=O)NCC(O)(c2cc(CN)cc(-c3ccc(F)c(Cl)c3)n2)C(F)(F)F)ccc1OC[C@@H](C)O (stereo partly shown) [Compound 357],EC50,[1]; [3],< 1000 nM
same,CC50 at 5 days,[2],10000 to 100000 nM
same,IC50,recombinant RSV complex,< 1000 nM
same,EC50,RSV replicon,< 1000 nM
COc1cc(C(=O)NCC(O)(c2cc3c(c(-c4ccc(F)c(Cl)c4)n2)CNC3(C)C)C(F)(F)F)ccc1OC1CC1 (stereo not shown) [Compound 526],EC50,[1]; [3],< 1000 nM
same,CC50 at 5 days,[2],10000 to 100000 nM
same,IC50,recombinant RSV complex,< 1000 nM
same,EC50,RSV replicon,< 1000 nM
COc1cc(C(=O)NCC(O)(c2cc3c(c(-c4ccc(F)cc4)n2)OCC3(C)CN)C(F)(F)F)ccc1OC1CC1 (stereo not shown) [Compound 538],EC50,[1]; [3],< 1000 nM
same,CC50 at 5 days,[2],10000 to 100000 nM
same,IC50,recombinant RSV complex,< 1000 nM
same,EC50,RSV replicon,< 1000 nM
COc1cc(C(=O)NCC(O)(c2cc3c(c(-c4ccc(F)c(C(F)(F)F)c4)n2)OCC3(C)N)C(F)(F)F)ccc1CO[C@@H](C)O (stereo partly shown) [Compound 665],EC50,[1]; [3],< 1000 nM
same,CC50 at 5 days,[2],10000 to 100000 nM
same,IC50,recombinant RSV complex,< 1000 nM
same,EC50,RSV replicon,< 1000 nM
COc1cc(C(=O)NCC(F)(c2ccc(OC)c(-c3ccc(F)c(Cl)c3)n2)C(F)(F)F)ccc1OC1CCNC1=O (stereo not shown) [Compound 344],EC50,[1]; [3],< 1000 nM
same,CC50 at 5 days,[2],10000 to 100000 nM
same,IC50,recombinant RSV complex,< 1000 nM
same,EC50,RSV replicon,< 1000 nM
COc1cc(C(=O)NCC(O)(c2ccc(OC)c(-c3ccc(F)c(Cl)c3)n2)C(F)(F)F)ccc1OCC(F)F (stereo not shown) [Compound 373],EC50,[1]; [3],< 1000 nM
same,CC50 at 5 days,[2],> 100000 nM
same,IC50,recombinant RSV complex,< 1000 nM
same,EC50,RSV replicon,< 1000 nM
COc1cc(C(=O)NCC(O)(CN2CCC2)c2ccc(OC)c(-c3ccc(F)c(Cl)c3)n2)ccc1OC1CC1 (stereo not shown) [Compound 462],EC50,[1]; [3],< 1000 nM
same,CC50 at 5 days,[2],10000 to 100000 nM
same,IC50,recombinant RSV complex,< 1000 nM
same,EC50,RSV replicon,< 1000 nM
COc1cc(C(=O)NCC(=O)c2cc3c(c(-c4ccc(F)c(Cl)c4)n2)OCCC3)ccc1OCCO [Compound 304],EC50,[1]; [3],< 1000 nM
same,CC50 at 5 days,[2],> 100000 nM
same,IC50,recombinant RSV complex,< 1000 nM
same,EC50,RSV replicon,< 1000 nM
COc1cc(C(=O)NCC(O)(c2cc3c(c(-c4ccc(F)c(Cl)c4)n2)OCC3(C)C)C(F)(F)F)ccc1OC1CC1 (stereo not shown) [Compound 209],EC50,[1]; [3],< 1000 nM
same,CC50 at 5 days,[2],> 100000 nM
same,IC50,recombinant RSV complex,< 1000 nM
same,EC50,RSV replicon,< 1000 nM
COc1cc(C(=O)NCC(O)(c2cc3c(c(-c4ccc(F)cc4)n2)OCC3(C)N)C(F)(F)F)cc2ccc(=O)[nH]c12 (stereo not shown) [Compound 642],EC50,[1]; [3],< 1000 nM
same,CC50 at 5 days,[2],10000 to 100000 nM
same,IC50,recombinant RSV complex,< 1000 nM
same,EC50,RSV replicon,< 1000 nM
"COc1cc(C(=O)NCC(O)(c2cc(C(C)(N)CF)cc(-c3ccc(F)cc3)n2)C(F)(F)F)ccc1OCCO (single isomer, unassigned) [Compound 664]",EC50,[1]; [3],< 1000 nM
same,CC50 at 5 days,[2],10000 to 100000 nM
same,IC50,recombinant RSV complex,< 1000 nM
same,EC50,RSV replicon,< 1000 nM
COc1cc(C(=O)NCC(N)(c2cc(C(C)(C)N)cc(-c3ccc(F)c(Cl)c3)n2)C(F)(F)F)ccc1OC1CC1 (stereo not shown) [Compound 504],EC50,[1]; [3],< 1000 nM
same,CC50 at 5 days,[2],10000 to 100000 nM
same,IC50,recombinant RSV complex,< 1000 nM
same,EC50,RSV replicon,< 1000 nM
COc1cc(C(=O)NCC(C)(O)c2cc3c(c(-c4c[nH]c5c(F)cccc45)n2)OCC3(C)C)ccc1OCCF (stereo not shown) [Compound 228],EC50,[1]; [3],< 1000 nM
same,CC50 at 5 days,[2],> 100000 nM
same,IC50,recombinant RSV complex,< 1000 nM
same,EC50,RSV replicon,< 1000 nM
COc1cc(C(=O)NCC(O)(c2cc(C(N)CO)cc(-c3ccc(F)cc3)n2)C(F)(F)F)ccc1OC1CC1 (stereo not shown) [Compound 529],EC50,[1]; [3],< 1000 nM
same,CC50 at 5 days,[2],10000 to 100000 nM
same,IC50,recombinant RSV complex,< 1000 nM
same,EC50,RSV replicon,< 1000 nM
COc1cc(C(=O)NCC(O)(c2cc(C(C)(C)NS(C)(=O)=O)cc(-c3ccc(F)c(Cl)c3)n2)C(F)(F)F)ccc1OC1CC1 (stereo not shown) [Compound 330],EC50,[1]; [4],< 1000 nM
same,CC50 at 5 days,[2],10000 to 100000 nM
same,IC50,recombinant RSV complex,< 1000 nM
same,EC50,RSV replicon,< 1000 nM
COc1cc(C(=O)NCC(O)(c2cc(C(C)(C)NC(C)=O)cc(-c3ccc(F)c(Cl)c3)n2)C(F)(F)F)ccc1OC1CC1 (stereo not shown) [Compound 326],EC50,[1]; [3],< 1000 nM
same,CC50 at 5 days,[2],10000 to 100000 nM
same,IC50,recombinant RSV complex,< 1000 nM
same,EC50,RSV replicon,< 1000 nM
CC(C)(N)c1cc(-c2ccc(F)cc2)nc(C(O)(CNC(=O)c2ccc(OC3CC3)c(CO)c2)C(F)(F)F)c1 (stereo not shown) [Compound 644],EC50,[1]; [3],< 1000 nM
same,CC50 at 5 days,[2],10000 to 100000 nM
same,IC50,recombinant RSV complex,< 1000 nM
same,EC50,RSV replicon,< 1000 nM
COc1cc(C(=O)NCC(O)(c2cc(C(C)(N)CF)cc(-c3ccc(F)c(Cl)c3)n2)C(F)(F)F)ccc1OCCO (stereo not shown) [Compound 540],EC50,[1]; [4],< 1000 nM
same,CC50 at 5 days,[2],10000 to 100000 nM
same,IC50,recombinant RSV complex,< 1000 nM
same,EC50,RSV replicon,< 1000 nM
COc1cc(C(=O)NCC(O)(c2ccc(OC)c(-c3ccc(F)c(Cl)c3)n2)C(F)(F)F)ccc1OCC(C)=O (stereo not shown) [Compound 362],EC50,[1]; [3],< 1000 nM
same,CC50 at 5 days,[2],10000 to 100000 nM
same,IC50,recombinant RSV complex,< 1000 nM
same,EC50,RSV replicon,< 1000 nM
CCNC(C)(C)c1cc(-c2ccc(F)c(Cl)c2)nc(C(O)(CNC(=O)c2ccc(OC[C@H](C)O)c(OC)c2)C(F)(F)F)c1 (stereo partly shown) [Compound 391],EC50,[1]; [3],< 1000 nM
same,CC50 at 5 days,[2],10000 to 100000 nM
same,IC50,recombinant RSV complex,< 1000 nM
same,EC50,RSV replicon,< 1000 nM
CNC(C)(C)c1cc(-c2ccc(F)c(Cl)c2)nc(C(O)(CNC(=O)c2ccc(O[C@H]3CCNC3=O)c(OC)c2)C(F)(F)F)c1 (stereo partly shown) [Compound 485],EC50,[1]; [3],< 1000 nM
same,CC50 at 5 days,[2],10000 to 100000 nM
same,IC50,recombinant RSV complex,< 1000 nM
same,EC50,RSV replicon,< 1000 nM
COc1cc(C(=O)NCC(O)(c2ccc(OC)c(-c3ccc(F)c(Cl)c3)n2)C(F)F)ccc1OC[C@@H](C)O (stereo partly shown) [Compound 444],EC50,[1]; [3],< 1000 nM
same,CC50 at 5 days,[2],10000 to 100000 nM
same,IC50,recombinant RSV complex,< 1000 nM
same,EC50,RSV replicon,< 1000 nM
COc1cc(C(=O)NCC(O)(c2cc(C(C)(N)CF)cc(-c3ccc(F)cc3)n2)C(F)(F)F)ccc1OC[C@@H](C)O (stereo partly shown) [Compound 614],EC50,[1]; [3],< 1000 nM
same,CC50 at 5 days,[2],10000 to 100000 nM
same,IC50,recombinant RSV complex,< 1000 nM
same,EC50,RSV replicon,< 1000 nM
COc1cc(C(=O)NCC(O)(c2ccc(OC)c(-c3ccc(F)c(Cl)c3)n2)C(F)(F)F)ccc1OC1(C)CC1 (stereo not shown) [Compound 249],EC50,[1]; [3],< 1000 nM
same,CC50 at 5 days,[2],10000 to 100000 nM
same,IC50,recombinant RSV complex,< 1000 nM
same,EC50,RSV replicon,< 1000 nM
COc1cc(C(=O)NCC(O)(Cn2ccnn2)c2ccc(OC)c(-c3ccc(F)c(Cl)c3)n2)ccc1OCCO (stereo not shown) [Compound 192],EC50,[1]; [3],< 1000 nM
same,CC50 at 5 days,[2],> 100000 nM
same,IC50,recombinant RSV complex,< 1000 nM
same,EC50,RSV replicon,< 1000 nM
COc1cc(C(=O)NC[C@](O)(c2cc(C(C)(C)N)cc(-c3ccc(C#N)cc3)n2)C(F)(F)F)ccc1OC[C@@H](C)O [Compound 624b],EC50,[1]; [3],< 1000 nM
same,CC50 at 5 days,[2],> 100000 nM
same,IC50,recombinant RSV complex,< 1000 nM
same,EC50,RSV replicon,< 1000 nM
COc1cc(C(=O)NCC(O)(c2ccc(OC)c(-c3ccc(F)c(Cl)c3)n2)C(F)(F)F)ccc1OCCO (stereo not shown) [Compound 334],EC50,[1]; [3],< 1000 nM
same,CC50 at 5 days,[2],10000 to 100000 nM
same,IC50,recombinant RSV complex,< 1000 nM
same,EC50,RSV replicon,< 1000 nM

# — patent US11021444B2, “Antiviral compounds” (priority 2013, dated 2021)
